Where “and” joins values, the source holds several entries; their conditions need not be identical. Equal values may be shown once. Where a name gives a salt, the structure may show the parent alone.
Key:
[1] = Anti-solvent precipitation: DMF or DMSO solution added to water; type: physicochemical
Experimental: The following techniques were tried but were not successful in the preparation of amorphous material: • i) Crash cooling freeze drying. […] Instead, solutions were formed which became dark within 4 hours, signifying degradation

[2] = Stability of amorphous form from melt/crash cooling on standing; type: physicochemical; settings: amorphous free base
[3] = Psilocin-d10 pharmacokinetics study in dogs following oral gavage and intravenous (bolus) administrations
[4] = Pharmacokinetics of psilocin-d10 and psilocybin in male beagle dog, powder in capsule (PIC) or orally disintegrating tablet (ODT)
[5] = Psilocin-d0/psilocin-d10 and psilocybin PK comparative study in rats (oral gavage, intravenous bolus; plasma and brain); settings: for oral bioavailability: co-dosing of PI-d0 and PI-d10
[6] = Maturation in 12 different solvents with thermal cycling (XRPD); type: physicochemical; settings: thermal cycling room temperature/50° C., 3 days
Experimental: The resulting slurries were subjected to maturation with thermal cycling between room temperature and 50° C. (4 hours at each condition) for 3 days. Solids were then analysed by XRPD.

[7] = Stability studies in sodium citrate buffer; type: physicochemical
Experimental: (§1) Preparation of 0.1 M sodium citrate buffer (pH 6.01): 2.427 g of sodium citrate dihydrate and 0.336 g of citric acid were dissolved in 80 ml of DI water. The pH was adjusted to 6.0 using a 1 M NaOH solution. The final volume was adjusted to 100 ml.

[8] = Stability studies in citric acid solution
[9] = Long term stability studies with citric acid and sodium citrate buffer; type: physicochemical
Experimental: The long-term stability (up to 25 days) of psilocin in a citric acid solution (0.1 M, pH 1.60) and a sodium citrate buffer (0.1 M, pH 6.01) at 4° C. and 23° C. was assessed.
as §1
Test solutions: Psilocin (1 mg/ml) was mixed with (i) sodium citrate buffer (0.1 M, pH 6.01) and (ii) citric acid solution (0.1 M, pH 1.60) in 1:1 v/v. The samples were stored at 4° C. and 23° C., and aliquots were sampled at designated timepoints (days 0, 7, 17, and 25).

[10] = Stability studies with antioxidants; settings: EDTA, ascorbic acid, L-cysteine, sodium metabisulfite, propyl gallate; 40° C.
[11] = Stability studies with cyclodextrin complexes; settings: 40° C., with or without metal salts
[12] = Stability studies in acid solutions (PI salt solutions); type: physicochemical; settings: 40° C.
Text: Ascorbic acid (AsA), acetic acid (AcA), tartaric acid (TA), fumaric acid (FA), citric acid (CA), malic acid (MA), benzenesulfonic acid (BSA), stearic acid (SA), sodium citrate dihydrate, monosodium phosphate hydrate, disodium phosphate were purchased from Sigma Aldrich. Aluminum (III) chloride (AlCl3) and iron (III) chloride (FeCl3) were purchased from Sigma Aldrich. Antioxidants, i.e., ethylenediaminetetraacetic acid (EDTA), ascorbic acid (AsA), L-cysteine (Cys), sodium metabisulfite (NamBiSO3) and propyl gallate (PG) were purchased from Sigma Aldrich. Hydroxypropyl-β-cyclodextrin (CAVASOL® W7 HP, CAVITRON® W7 HP7) and methyl-β-cyclodextrin (CAVASOL® W7 M) were provided by DuPont.
The following chromatographic conditions were used:
Diluent. The diluent used in the below studies was prepared as follows: 100 mL of acetonitrile (ACN) was mixed with 800 mL of water and 100 mL of 1.0 M citric acid and mixed well to prepare 1 L of diluent.
The stability of psilocin in 0.1 M solutions of various acids was tested.
Test solutions: To prepare the test solutions, 0.1 M solutions of AsA, AcA, TA, FA, CA, MA, BSA, and SA were prepared in DI water.

[13] = Observation of freeze dried salt; type: physicochemical; settings: freeze dried from 1,4-dioxane
[14] = female dog plasma, single intravenous (bolus) 0.20 mg/kg, Mean, N=3
[15] = female dog plasma, single intravenous (bolus) 0.20 mg/kg, Median, N=3
[16] = female dog plasma, single intravenous (bolus) 0.20 mg/kg, individual animals 60F, 61F, 723F, listed as Psilocin-d10, 0.2 mg/kg
[17] = female dog plasma, single oral (gavage) 1.00 mg/kg, Median, N=3
[18] = female dog plasma, single oral (gavage) 1.00 mg/kg, individual animals 60F, 61F, 723F, listed as Psilocin-d10, 1 mg/kg
[19] = ODT, psilocin-d10 dosed 5 mg (nominal 0.5 mg/kg), analyte psilocin-d10, male beagle dog plasma, Mean
[20] = PIC, psilocin-d10 dosed 5 mg (nominal 0.5 mg/kg), analyte psilocin-d10, male beagle dog plasma, Mean

In the case of `[2H]C([2H])([2H])N(C([2H])([2H])[2H])C([2H])([2H])C([2H])([2H])c1c[nH]c2cccc(O)c12` [Compound I-3, 3-(2-(bis(methyl-d3)amino)ethyl-1,1,2,2-d4)-1H-indol-4-ol], the “time until solutions became dark, signifying degradation” value [1] is reported as at most 4 h, the “stability of amorphous form” value [2] is reported as “not stable for prolonged periods” and the “time of last detectable plasma level” value ([3]; dogs, oral administration) is reported as 9 h. The Cmax [3, 14] was 45.8 ng/mL, the t1/2 [3, 14] was 1.37 h and the AUC0-inf [3, 15] was 95.8 ng·h/mL. For the same compound, the AUC0-t [3, 15] was 80.7 ng·h/mL, the CL [3, 15] was 34.83 mL/min/kg and the Cmax [3, 15] was 45.9 ng/mL. The “DN Cmax” value [3, 15] was 230 (ng/mL)/(mg/kg), the Vss [3, 15] was 3.96 L/kg and the AUC0-inf [3, 16] was 95.8 ng·h/mL. The AUC0-t [3, 16] was 80.7 ng·h/mL, the CL [3, 16] was 34.83 mL/min/kg and the Cmax [3, 16] was 45.9 ng/mL and 43.9 ng/mL. For the same compound, the “DN AUC0-inf” value [3, 16] was 500 (h*ng/mL)/(mg/kg), the “DN Cmax” value [3, 16] was 230 (ng/mL)/(mg/kg) and 220 (ng/mL)/(mg/kg) and the Vss [3, 16] was 3.96 L/kg. For the same compound, the AUC0-inf [3, 17] was 414 ng·h/mL, the AUC0-t [3, 17] was 399 ng·h/mL and the t1/2 [3, 17] was 1.80 h. For the same compound, the AUC0-inf [3, 18] was 426 ng·h/mL and 414 ng·h/mL, the AUC0-t [3, 18] was 404 ng·h/mL and 399 ng·h/mL and the Cmax [3, 18] was 126 ng/mL. The t1/2 [3, 18] was 1.80 h and 1.82 h and 1.69 h, the AUCINF_obs [4, 19] was 213 ng·h/mL and the AUClast [4, 19] was 199 ng·h/mL. For the same compound, the Cl_F_obs [4, 19] was 40.33 mL/min/kg, the Cmax [4, 19] was 67.2 ng/mL and the Tmax [4, 19] was 0.542 h. For the same compound, the Vz_F_obs [4, 19] was 6.9 L/kg, the AUClast [4, 20] was 181 ng·h/mL and the Cl_F_obs [4, 20] was 43.5 mL/min/kg. It also gave a Cmax [4, 20] of 60 ng/mL, a T½ [4, 20] of 2.01 h and a Vz_F_obs [4, 20] of 7.6 L/kg. The “psilocin-d10 exposure compared to psilocin exposure after administration of psilocybin” value ([4]; dogs, independent of formulation) was “twice as high” and the oral bioavailability ([5]; rats) was 12.1%.
With `[2H]C([2H])([2H])N(C([2H])([2H])[2H])C([2H])([2H])C([2H])([2H])c1c[nH]c2cccc(O)c12` [Compound I-3j, Benzoate Salt of 3-(2-(bis(methyl-d3)amino)ethyl-1,1,2,2-d4)-1H-indol-4-ol] the “crystalline form by XRPD after maturation in 12 solvents” value (“crystalline form by XRPD” for short) [6] was “retained their initial crystalline form”.
In the case of `CN(C)CCc1c[nH]c2cccc(O)c12` [Compound I-7, 3-(2-(dimethylamino)ethyl)-1H-indol-4-ol], the “solution stability (% psilocin remaining)” value ([7]; 0.1 M sodium citrate buffer, 4° C. and room temperature) is reported as “greatly stabilized”, the degradation of psilocin ([7]; 0.1 M sodium citrate buffer, 40° C.) is reported as 10-15% and the “effect of metal salts (Fe3+ and Al3+) on psilocin” value ([7]; in 0.1 M citrate buffer) is reported as “no detrimental effects”. The “solution stability (% psilocin remaining)” value ([7]; non-citrate buffered, with Fe3+ and Al3+ metal ions) was “significant psilocin degradation”, the “solution stability (% psilocin remaining)” value ([7]; without sodium citrate buffer, 4, 23, 40° C., by 18 hour time point) was “nearly all psilocin being degraded” and the “psilocin stabilization at 24 hour time point” value ([8]; small quantities of citric acid, 40° C., 24 hour) was 30%. For the same compound, the “solution stability (% psilocin remaining)” value ([8]; small quantities of citric acid, pH 3.2, 4° C. and 23° C.) was “greatly enhanced the stability”, the “solution stability (% psilocin remaining)” value ([8]; without citric acid, 4, 23 and 40° C., by 18 hour time point) was “nearly all psilocin being degraded” and the “solution stability (% psilocin remaining)” value ([8]; without citric acid, with Fe3+ and Al3+ metal ions) was “significant psilocin degradation”. For the same compound, the long-term solution stability ([9]; citric acid 0.1 M, pH 1.60, 23° C. and 4° C., 25 days) was “only minimal degradation”, the “time psilocin remained stable” value ([9]; sodium citrate buffer pH 6.01, cold storage 4° C.) was “up to 17 days” and the long-term solution stability ([9]; sodium citrate buffer pH 6.01, room temperature) was “degradation of psilocin began within a week”. The “stability against metal salts with antioxidants” value [10] was “none of the antioxidants tested were able to provide stability”, the stability with cyclodextrins [11] was “did not impart stability” and the oral bioavailability ([5]; rats) was 7.52%. For the same compound, the “solution stability (% psilocin remaining)” value ([12]; 0.1 M acid solutions, with or without metal salts, up to 24) was “excellent stability”, the “solution stability (% psilocin remaining)” value ([12]; without acid, within 24 hours) was “nearly all psilocin being degraded” and the “solution stability (% psilocin remaining)” value ([12]; without acid, with Fe3+ and Al3+ metal ions) was “significant psilocin degradation”.
For `CN(C)CCc1c[nH]c2cccc(O)c12` [Compound I-7a, Benzenesulfonate Salt of 3-(2-(dimethylamino)ethyl)-1H-indol-4-ol], the “crystalline form by XRPD” value [6] was “retained their initial crystalline form”.
In the case of `CN(C)CCc1c[nH]c2cccc(O)c12` [Compound I-7b, Tartrate Salt of 3-(2-(dimethylamino)ethyl)-1H-indol-4-ol], the “crystalline form by XRPD” value [6] is reported as “retained their initial crystalline form”.
In the case of `CN(C)CCc1c[nH]c2cccc(O)c12` [Compound I-7c, Hemi-Fumarate Salt of 3-(2-(dimethylamino)ethyl)-1H-indol-4-ol], the “crystalline form by XRPD” value [6] is reported as “complex polymorphism”.
With `CN(C)CCc1c[nH]c2cccc(O)c12` [Compound I-7e, Citrate Salt of 3-(2-(dimethylamino)ethyl)-1H-indol-4-ol] the “hygroscopicity of isolated solid” value [13] was “hygroscopic”.
For `CN(C)CCc1c[nH]c2cccc(O)c12` [Compound I-7j, Benzoate Salt of 3-(2-(dimethylamino)ethyl)-1H-indol-4-ol], the “crystalline form by XRPD” value [6] was “retained their initial crystalline form”.
In the case of `CN(C)CCc1c[nH]c2cccc(OP(=O)(O)O)c12` [psilocybin], the Tmax ([5]; rat plasma, Group 3: psilocybin intravenous (bolus) 2.8 mg/kg, label = analyte, IAD = immediately after dosing) is reported as “IAD” and the “brain concentrations compared to plasma” value ([5]; rats, after IV dosing) is reported as “brain concentrations are low”.

From patent US20260250246A1, “PSILOCYBIN ANALOGS, SALTS, COMPOSITIONS, AND METHODS OF USE” (priority 2021, published 2026)
